Test [1] deals with C. albicans wild type PHO84/PHO84 and pho84/pho84 null cells. Briefly: Growth curves in liquid SC medium (OD600) during exposure to Pho84 inhibitors. The class given is cell-based, Candida albicans. Particulars: wild type vs pho84−/− null; 1 and 4 mM PAA or 200 and 400 μM foscarnet; SC with 0.22 or 11 mM KH2PO4, 30° C.; FIG. 10A, B. Here is the method: FIGS. 10A-10D depict data showing that Foscarnet inhibits Pho84 in competition with Pi. Wild type PHO84/PHO84 (+/+, dark blue) (JKC915) and pho84/pho84 null (−/−, light blue) (JKC1450) cells were exposed to 1 and 4 mM PAA (FIG. 10A) or 200 and 400 μM foscarnet (FIG. 10B), and growth in SC medium with 0.22 mM or 11 mM KH2PO4 at 30° C. was monitored automatically every 15 minutes. FIGS. 10A and 10B are representative of 3 biological replicates; error bars show SD. FIG. 10C depicts a filamentation assay: in order to maximize reproducibility between replicate experiments, cells of wild type strain SC5314 were suspended in 0.9% NaCl to an OD600 of 0.1; then 3 μl of the suspension was spotted at equidistant points, using a template, around a Spider agar plate containing vehicle or 500 μM foscarnet. Spot edges were imaged to show the length and density of filaments extending from the edge of the spot into the agar medium. Scale bar 1 mm. […] OD600 was monitored automatically every 15 minutes. […]
For cell dilutions spotted onto agar media as previously described (20), saturated overnight cultures were diluted in 5-fold steps from an OD600 of 0.5. […] For growth assays including those during drug exposure, OD600 readings were obtained every 15 min in a plate reader and standard deviations of 3 technical replicates were calculated and graphed in Graphpad Prism. […]

Test [2] deals with ROS content of wild type (SC5314) cells. Briefly: DCFDA detectable ROS measurement. The class given is cell-based, Candida albicans. To be noted: wild type cells unexposed to external oxidative stressors; 500 microM foscarnet or 1 mM PAA, 1 hour; FIG. 20C. How it is done: FIGS. 20A-20D depict data showing that TORC1 activity contributes to ROS management and Sod3 expression. FIG. 20A depicts dichlorodihydrofluorescein diacetate (DCFDA) detectable ROS measurement of strains, (1) PHO84/PHO84 containing vector (JKC1594), (2) pho84/pho84 containing vector (JKC1598), (3) PHO84/PHO84 overexpressing GTR1 (JKC1596), (4) pho84/pho84 overexpressing GTR1 (JKC1600). Cells cultured overnight in YPD were diluted into SC medium (Loflo) with vehicle or 8 ng/ml rapamycin for 1 hour, and fluorescence intensity was determined at excitation-485 nm and emission wavelength 528 nm after staining cells with 50 μM DCFDA. p=0.0252 for ratio of pho84−/− with vector and pho84−/− overexpressing GTR1 versus ratio of wild type with vector and wild type overexpressing GTR1; all cells exposed to vehicle. p=0.0014 for ratio of pho84−/− with vector and pho84−/− overexpressing GTR1 versus ratio of wild type with vector and wild type overexpressing GTR1; all cells exposed to rapamycin. p values calculated using Student's t-test. […] In FIG. 20C, wild type (SC5314) cells were exposed to vehicle, 500 microM foscarnet or 1 mM PAA for 1 hour, and fluorescence intensity was determined at excitation-485 nm and emission wavelength 528 nm after staining cells with 50 μM DCFH-DA. p<0.001 for both 500 microM foscarnet versus vehicle and 1 mM PAA versus vehicle. […]

The subject of test [3] is C. albicans wild type (SC5314). Briefly: Potentiation of antifungals, growth curves (OD600) in SC with 0.5 mM KH2PO4. To be noted: 500 μM Fos plus 0.2 μg/ml amphotericin B; 8 mM PAA plus 0.25 μg/ml amphotericin B; 30° C.; FIG. 4C, 10D. The class given is cell-based, Candida albicans. Here is the method:
FIGS. 4A-4D depict data showing that small-molecule inhibition of Pho84 represses TORC1 and hyphal morphogenesis, and potentiates amphotericin B and micafungin antifungal activity. FIG. 4A depicts a Western blot of wild type (wt) (SC5314) cells with (1) vehicle, (2) 100 μM foscarnet (Fos), (3) 200 μM Fos, (4) 400 μM Fos, and strains (5, 7, 9, 11) PHO84+/+(JKC915), (6, 8) pho84−/+ (JKC1583) and (10, 12) pho84−/− (JKC1450), grown in standard SC (7.3 mM Pi) for 60 min, probed for P-S6 and tubulin. […] FIG. 4C depicts Wt (SC5314) exposed to vehicle, 500 μM Fos, 0.2 μg/ml amphotericin B, and amphotericin B plus Fos; OD600 in SC with 0.5 mM KH2PO4 at 30° C. monitored every 15 minutes. FIG. 4D depicts Wt (SC5314) exposed to vehicle, 500 μM Fos, 25 ng/ml micafungin, and micafungin plus Fos; OD600 in SC with 0.5 mM KH2PO4 at 30° C. monitored every 15 minutes.
FIGS. 10A-10D depict data showing that Foscarnet inhibits Pho84 in competition with Pi. Wild type PHO84/PHO84 (+/+, dark blue) (JKC915) and pho84/pho84 null (−/−, light blue) (JKC1450) cells were exposed to 1 and 4 mM PAA (FIG. 10A) or 200 and 400 μM foscarnet (FIG. 10B), and growth in SC medium with 0.22 mM or 11 mM KH2PO4 at 30° C. was monitored automatically every 15 minutes. […] OD600 was monitored automatically every 15 minutes. […]

In test [4] the test system is TORC1 (Rps6 phosphorylation). Briefly: Western blot for phosphorylated ribosomal protein S6 (P-S6) as readout of TORC1 activity. Type of test: cell-based, Candida albicans. To be noted: FIG. 4A. How it is done:
FIGS. 4A-4D depict data showing that small-molecule inhibition of Pho84 represses TORC1 and hyphal morphogenesis, and potentiates amphotericin B and micafungin antifungal activity. FIG. 4A depicts a Western blot of wild type (wt) (SC5314) cells with (1) vehicle, (2) 100 μM foscarnet (Fos), (3) 200 μM Fos, (4) 400 μM Fos, and strains (5, 7, 9, 11) PHO84+/+(JKC915), (6, 8) pho84−/+ (JKC1583) and (10, 12) pho84−/− (JKC1450), grown in standard SC (7.3 mM Pi) for 60 min, probed for P-S6 and tubulin. FIG. 4B depicts Wt (SC5314) spotted at equidistant points around RPMI agar (0.22 mM KH2PO4, pH 7) containing vehicle, 8 mM phosphonoacetic acid (PAA), or 500 μM Fos, grown at 37° C., and spot edges imaged. Compare with FIG. 7A. Bar 1 mm. FIG. 4C depicts Wt (SC5314) exposed to vehicle, 500 μM Fos, 0.2 μg/ml amphotericin B, and amphotericin B plus Fos; OD600 in SC with 0.5 mM KH2PO4 at 30° C. monitored every 15 minutes. FIG. 4D depicts Wt (SC5314) exposed to vehicle, 500 μM Fos, 25 ng/ml micafungin, and micafungin plus Fos; OD600 in SC with 0.5 mM KH2PO4 at 30° C. monitored every 15 minutes.
Cell harvesting, lysis, Western blotting and densitometry were performed as described in Chowdhury T & Köhler JR (2015) Ribosomal protein S6 phosphorylation is controlled by TOR and modulated by PKA in Candida albicans. Molecular Microbiology 98(2):384-402. At least three biological replicates were obtained for each experiment shown.

Test [5] has as its system C. albicans wild type, pho84−/− null and reintegrant cells. Briefly: Growth in YPD with oxidative stressors (OD600). Type of test: cell-based, Candida albicans. Particulars: 25 μM plumbagin, 40 μM menadione, 40 mM H2O2, FIG. 16A. How it is done:
FIGS. 16A and 16B depict data showing that resistance to oxidative stressors is decreased, and Hog1 phosphorylation is increased in cells lacking PHO84. In FIG. 16A, overnight cultures were washed with normal saline and diluted to YPD with vehicle, 25 μM plumbagin, 40 μM menadione, and 40 mM H2O2 to OD600 0.1. OD600 was monitored every 15 minutes for strains +/+ (PHO84/PHO84), JKC915; −/− (pho84/pho84), JKC1450 and −/−/+(pho84/pho84::PHO84), JKC1588. FIG. 16B depicts a Western blot of cells incubated in YPD containing 5 mM H2O2 for 5 min, 10 min, 20 min, 30 min and 40 min. The membrane was probed for P-Hog1, total Hog1, and loading controls PSTAIRE and Histone H3. Strains, +/+ (PHO84/PHO84), JKC915; −/− (pho84/pho84), JKC1450 and −/−/+ (pho84/pho84::PHO84), JKC1588. FIGS. 16A and 16B show representatives of at least 3 biological replicates.
For cell dilutions spotted onto agar media as previously described (20), saturated overnight cultures were diluted in 5-fold steps from an OD600 of 0.5. For growth curves in liquid media, saturated overnight cultures in YPD were washed once in 0.9% NaCl and diluted to an OD600 of 0.15 in 150 μl medium in flat bottom 96-well dishes. For growth assays including those during drug exposure, OD600 readings were obtained every 15 min in a plate reader and standard deviations of 3 technical replicates were calculated and graphed in Graphpad Prism. Growth during drug exposure was assayed in SC medium. Vehicle for Pho84 inhibitors PAA (Sigma, 284270) and Fos (Santa Cruz Biotechnology, # SC-253593A) was water and for amphotericin B (Sigma, A9528), DMSO. All panels shown represent at least 3 biological replicates.

Test [6] concerns human peripheral blood derived neutrophils incubated with C. albicans. The class given is cell-based. To be noted: neutrophils pretreated with different concentrations of NAC (up to 10 mM); 90 min, M.O.I. 2; dose-dependent; FIG. 12D.
Description: To examine whether in fact ROS are responsible for pho84−/− null cells' increased susceptibility to neutrophils' cidal activity, Candida-ingesting neutrophils were treated with the ROS-scavenging compound N-acetyl cysteine (NAC).

Consider `O=C(O)P(=O)(O)O` [Fos, phosphonoformic acid], for which, in test [1], the “C. albicans growth inhibition in dependence on Pho84” value was “inhibit C. albicans growth in dependence on the presence of their target Pho84”. In addition, in test [2], the “ROS content (DCFDA detectable)” value is listed as “increased the ROS content of wild type cells”. For the same compound, the “Potentiation of amphotericin B antifungal activity” value in test [3] was “potentiate activity of the antifungal amphotericin B”. Also, the “Rps6 phosphorylation (P-S6)” value in test [4] (heterozygous pho84−/+ cells (JKC1583)) was “P-S6 was hypersensitive to Fos”; in test [4] (pho84−/− cells lacking the target (JKC1450)) it was “did not further decrease the P-S6 signal”; in test [4] (wild type (SC5314) cells, 100, 200, 400 μM Fos, SC (7.3 mM Pi), 60 min), “inhibited Rps6 phosphorylation (PS6) in a dose-dependent manner”.
For the compound `OO` [H2O2, hydrogen peroxide], the “Growth inhibition of pho84−/− null mutant compared with wild type” value in test [5] is recorded as “inhibited growth of the mutant more strongly than that of the wild type”.
Take `CC(=O)N[C@@H](CS)C(=O)O` [NAC, N-acetyl cysteine]: the “Hypersensitivity of pho84−/− null cells to neutrophil killing” value in test [6] is recorded as “rescued hypersensitivity of pho84−/− null cells to neutrophil killing”.
`O=C(O)CP(=O)(O)O` [PAA, phosphonoacetic acid]: the “C. albicans growth inhibition in dependence on Pho84” value in test [1] was “inhibit C. albicans growth in dependence on the presence of their target Pho84”. Also, the “ROS content (DCFDA detectable)” value in test [2] is “increased the ROS content of wild type cells”. For the same compound, in test [3], the “Potentiation of amphotericin B antifungal activity” value was “potentiate activity of the antifungal amphotericin B”.
Turning to `CC1=CC(=O)c2ccccc2C1=O` [menadione], the “Growth inhibition of pho84−/− null mutant compared with wild type” value in test [5] is reported as “inhibited growth of the mutant more strongly than that of the wild type”.
On the same count and under the same terms, for `CC1=CC(=O)c2c(O)cccc2C1=O` [plumbagin] the value was “inhibited growth of the mutant more strongly than that of the wild type”.

(Values after US20200061087A1, “Inhibiting the Fungal Cell-Surface Phospate Transporter PHO84” (Children's Medical Center Corporation, priority 2017, published 2020).)
